The values below come from patent US10253002B2, “Compounds and methods of treating infections” (Neoculi Pty Ltd., priority 2013, dated 2019).

The subject of one assay is Pseudomonas aeruginosa. The experiment in a line: Broth microdilution MIC, Example 7 (NCL812 and analogues). Type of assay: cell-based. Particulars: P. aeruginosa; 24 hours; duplicate lines per compound.
On to `Cc1ccc(C=NNC(=N)NN=Cc2ccc(Cl)cc2)cc1.Cl` [NCL076], for which the “MIC (μg/ml) at 24 hours, P. aeruginosa” value is above 128 µg/mL.
For `Cl.N=C(N/N=C/c1ccc(Cl)cc1)N/N=C/c1ccc(C(F)(F)F)cc1` [NCL077], the “MIC (μg/ml) at 24 hours, P. aeruginosa” value is above 128 µg/mL.
On the same count and under the same terms, the value for `Cl.N=C(N/N=C/c1ccc(Cl)cc1)N/N=C/c1cccc(Cl)c1` [NCL083] was above 128 µg/mL; that for `Cl.N#Cc1ccccc1C=NNC(=N)NN=Cc1ccc(Cl)cc1` [NCL085] was above 128 µg/mL; that for `Cl.N#Cc1cccc(C=NNC(=N)NN=Cc2ccc(Cl)cc2)c1` [NCL086] was above 128 µg/mL.
Consider `Cl.N#Cc1ccc(/C=N/NC(=N)N/N=C/c2ccc(Cl)cc2)cc1` [NCL087], for which the “MIC (μg/ml) at 24 hours, P. aeruginosa” value was above 128 µg/mL.
Still for that read-out and setting: the value for `Cl.N=C(NC(=O)c1ccccc1)N(N=Cc1ccccc1Cl)C(=O)c1ccccc1` [NCL090] was above 128 µg/mL; that for `FC(F)(F)c1ccc(-c2nnc(Nc3ccc(Cl)cc3)[nH]2)cc1` [NCL091] was above 128 µg/mL.
On the same count and under the same terms, the figure for `Clc1ccc(CNc2nnc(-c3ccc(Cl)cc3)[nH]2)cc1` [NCL092] is above 128 µg/mL; for `Cl.N=C(N/N=C/c1ccc2ccccc2c1)N/N=C/c1ccc2ccccc2c1` [NCL093] it is above 128 µg/mL.
Consider `Cl.N=C(NN=CC1CCCCC1)NN=CC1CCCCC1` [NCL094], for which the “MIC (μg/ml) at 24 hours, P. aeruginosa” value is above 128 µg/mL.

The subject of another assay is MRSA. The assay is described as above. Type of assay: cell-based, Staphylococcus aureus. Particulars: MIC testing, two MRSA strains. In a few lines: (§1)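 Turbidity read visually and then at 600 nm defined the MIC (μg/ml), comparing drug-containing wells with a growth-control well lacking antimicrobial. Testing followed the CLSI broth microdilution method, in duplicate, using two strains per organism group.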
In the case of `Cl.N=C(N/N=C/c1ccc2ccccc2c1)N/N=C/c1ccc2ccccc2c1` [NCL093], the “activity against MRSA among analogues” value is listed as “greatest activity”.
In the case of `Cl.N=C(NN=CC1CCCCC1)NN=CC1CCCCC1` [NCL094], the “activity against MRSA among analogues” value is “greatest activity”.

Still in this assay, the particulars now being: MRSA 1; 24 hours; duplicate lines per compound.
As to `Cc1ccc(C=NNC(=N)NN=Cc2ccc(Cl)cc2)cc1.Cl` [NCL076], the “MIC (μg/ml) at 24 hours, MRSA 1” value is above 128 µg/mL.
As to `Cl.N=C(N/N=C/c1ccc(Cl)cc1)N/N=C/c1ccc(C(F)(F)F)cc1` [NCL077], the “MIC (μg/ml) at 24 hours, MRSA 1” value was above 128 µg/mL.
Take `Cl.N=C(N/N=C/c1ccc(Cl)cc1)N/N=C/c1cccc(Cl)c1` [NCL083]: the “MIC (μg/ml) at 24 hours, MRSA 1” value is above 128 µg/mL.
`Cl.N#Cc1ccccc1C=NNC(=N)NN=Cc1ccc(Cl)cc1` [NCL085]: the “MIC (μg/ml) at 24 hours, MRSA 1” value was above 128 µg/mL.
For `Cl.N#Cc1cccc(C=NNC(=N)NN=Cc2ccc(Cl)cc2)c1` [NCL086], the “MIC (μg/ml) at 24 hours, MRSA 1” value is above 128 µg/mL.
As for `Cl.N#Cc1ccc(/C=N/NC(=N)N/N=C/c2ccc(Cl)cc2)cc1` [NCL087], the “MIC (μg/ml) at 24 hours, MRSA 1” value is above 128 µg/mL.
The same measure, in the same setting: the value for `Cl.N=C(NC(=O)c1ccccc1)N(N=Cc1ccccc1Cl)C(=O)c1ccccc1` [NCL090] was above 128 µg/mL; that for `FC(F)(F)c1ccc(-c2nnc(Nc3ccc(Cl)cc3)[nH]2)cc1` [NCL091] was above 128 µg/mL.
On the same count and under the same terms, the figure for `Clc1ccc(CNc2nnc(-c3ccc(Cl)cc3)[nH]2)cc1` [NCL092] is above 128 µg/mL; for `Cl.N=C(N/N=C/c1ccc2ccccc2c1)N/N=C/c1ccc2ccccc2c1` [NCL093] it is 64 µg/mL.
Still for that read-out and setting: the value for `Cl.N=C(NN=CC1CCCCC1)NN=CC1CCCCC1` [NCL094] was 128 µg/mL.

Still in this assay, the particulars now being: MRSA 2; 24 hours; duplicate lines per compound.
Consider `Cc1ccc(C=NNC(=N)NN=Cc2ccc(Cl)cc2)cc1.Cl` [NCL076], for which the “MIC (μg/ml) at 24 hours, MRSA 2” value was above 128 µg/mL.
In the case of `Cl.N=C(N/N=C/c1ccc(Cl)cc1)N/N=C/c1ccc(C(F)(F)F)cc1` [NCL077], the “MIC (μg/ml) at 24 hours, MRSA 2” value was above 128 µg/mL.
Same read-out and setting: the value for `Cl.N=C(N/N=C/c1ccc(Cl)cc1)N/N=C/c1cccc(Cl)c1` [NCL083] was above 128 µg/mL.
Consider `Cl.N#Cc1ccccc1C=NNC(=N)NN=Cc1ccc(Cl)cc1` [NCL085], for which the “MIC (μg/ml) at 24 hours, MRSA 2” value was above 128 µg/mL.
Still for that read-out and setting: the value for `Cl.N#Cc1cccc(C=NNC(=N)NN=Cc2ccc(Cl)cc2)c1` [NCL086] was above 128 µg/mL; that for `Cl.N#Cc1ccc(/C=N/NC(=N)N/N=C/c2ccc(Cl)cc2)cc1` [NCL087] was above 128 µg/mL.
The same measure, in the same setting: the figure for `Cl.N=C(NC(=O)c1ccccc1)N(N=Cc1ccccc1Cl)C(=O)c1ccccc1` [NCL090] is above 128 µg/mL.
On the same count and under the same terms, the figure for `FC(F)(F)c1ccc(-c2nnc(Nc3ccc(Cl)cc3)[nH]2)cc1` [NCL091] is above 128 µg/mL; for `Clc1ccc(CNc2nnc(-c3ccc(Cl)cc3)[nH]2)cc1` [NCL092] it is above 128 µg/mL.
For the compound `Cl.N=C(N/N=C/c1ccc2ccccc2c1)N/N=C/c1ccc2ccccc2c1` [NCL093], the “MIC (μg/ml) at 24 hours, MRSA 2” value was found to be 128 µg/mL.
Turning to `Cl.N=C(NN=CC1CCCCC1)NN=CC1CCCCC1` [NCL094], the “MIC (μg/ml) at 24 hours, MRSA 2” value was 128 µg/mL.

For a further assay, the system named is Escherichia coli. The assay is described as above. The assay is classed as cell-based. Particulars: E. coli; 24 hours; duplicate lines per compound.
`Cc1ccc(C=NNC(=N)NN=Cc2ccc(Cl)cc2)cc1.Cl` [NCL076]: the “MIC (μg/ml) at 24 hours, E. coli” value is above 128 µg/mL.
The same measure, in the same setting: the figure for `Cl.N=C(N/N=C/c1ccc(Cl)cc1)N/N=C/c1ccc(C(F)(F)F)cc1` [NCL077] is above 128 µg/mL.
Same read-out and setting: the value for `Cl.N=C(N/N=C/c1ccc(Cl)cc1)N/N=C/c1cccc(Cl)c1` [NCL083] was above 128 µg/mL; that for `Cl.N#Cc1ccccc1C=NNC(=N)NN=Cc1ccc(Cl)cc1` [NCL085] was above 128 µg/mL.
Still for that read-out and setting: the figure for `Cl.N#Cc1cccc(C=NNC(=N)NN=Cc2ccc(Cl)cc2)c1` [NCL086] is above 128 µg/mL; for `Cl.N#Cc1ccc(/C=N/NC(=N)N/N=C/c2ccc(Cl)cc2)cc1` [NCL087] it is above 128 µg/mL; for `Cl.N=C(NC(=O)c1ccccc1)N(N=Cc1ccccc1Cl)C(=O)c1ccccc1` [NCL090] it is above 128 µg/mL.
Regarding `FC(F)(F)c1ccc(-c2nnc(Nc3ccc(Cl)cc3)[nH]2)cc1` [NCL091], the “MIC (μg/ml) at 24 hours, E. coli” value was above 128 µg/mL.
As to `Clc1ccc(CNc2nnc(-c3ccc(Cl)cc3)[nH]2)cc1` [NCL092], the “MIC (μg/ml) at 24 hours, E. coli” value is above 128 µg/mL.
As for `Cl.N=C(N/N=C/c1ccc2ccccc2c1)N/N=C/c1ccc2ccccc2c1` [NCL093], the “MIC (μg/ml) at 24 hours, E. coli” value was above 128 µg/mL.
For the compound `Cl.N=C(NN=CC1CCCCC1)NN=CC1CCCCC1` [NCL094], the “MIC (μg/ml) at 24 hours, E. coli” value is above 128 µg/mL.

The subject of a further assay is VRE. Described as above. The assay is classed as cell-based, Enterococcus spp. Particulars: MIC testing, two VRE strains. A digest of the protocol: as §1
For `Cl.N=C(N/N=C/c1ccc2ccccc2c1)N/N=C/c1ccc2ccccc2c1` [NCL093], the “activity against VRE among analogues” value is listed as “greatest activity”.
As for `Cl.N=C(NN=CC1CCCCC1)NN=CC1CCCCC1` [NCL094], the “activity against VRE among analogues” value is on record as “greatest activity”.

The assay is the same for the next values; noted with them: VRE 1; 24 hours; duplicate lines per compound.
In the case of `Cc1ccc(C=NNC(=N)NN=Cc2ccc(Cl)cc2)cc1.Cl` [NCL076], the “MIC (μg/ml) at 24 hours, VRE 1” value is above 128 µg/mL.
Regarding `Cl.N=C(N/N=C/c1ccc(Cl)cc1)N/N=C/c1ccc(C(F)(F)F)cc1` [NCL077], the “MIC (μg/ml) at 24 hours, VRE 1” value is above 128 µg/mL.
The same measure, in the same setting: the figure for `Cl.N=C(N/N=C/c1ccc(Cl)cc1)N/N=C/c1cccc(Cl)c1` [NCL083] is above 128 µg/mL; for `Cl.N#Cc1ccccc1C=NNC(=N)NN=Cc1ccc(Cl)cc1` [NCL085] it is above 128 µg/mL; for `Cl.N#Cc1cccc(C=NNC(=N)NN=Cc2ccc(Cl)cc2)c1` [NCL086] it is above 128 µg/mL.
Still for that read-out and setting: the figure for `Cl.N#Cc1ccc(/C=N/NC(=N)N/N=C/c2ccc(Cl)cc2)cc1` [NCL087] is above 128 µg/mL.
On the same count and under the same terms, the value for `Cl.N=C(NC(=O)c1ccccc1)N(N=Cc1ccccc1Cl)C(=O)c1ccccc1` [NCL090] was above 128 µg/mL; that for `FC(F)(F)c1ccc(-c2nnc(Nc3ccc(Cl)cc3)[nH]2)cc1` [NCL091] was above 128 µg/mL; that for `Clc1ccc(CNc2nnc(-c3ccc(Cl)cc3)[nH]2)cc1` [NCL092] was above 128 µg/mL.
With `Cl.N=C(N/N=C/c1ccc2ccccc2c1)N/N=C/c1ccc2ccccc2c1` [NCL093], the “MIC (μg/ml) at 24 hours, VRE 1” value is 64 µg/mL.
The same measure, in the same setting: the value for `Cl.N=C(NN=CC1CCCCC1)NN=CC1CCCCC1` [NCL094] was 64 µg/mL.

Staying with this assay, now noted: VRE 2; 24 hours; duplicate lines per compound.
`Cc1ccc(C=NNC(=N)NN=Cc2ccc(Cl)cc2)cc1.Cl` [NCL076]: the “MIC (μg/ml) at 24 hours, VRE 2” value was above 128 µg/mL.
The same measure, in the same setting: the value for `Cl.N=C(N/N=C/c1ccc(Cl)cc1)N/N=C/c1ccc(C(F)(F)F)cc1` [NCL077] was above 128 µg/mL.
Turning to `Cl.N=C(N/N=C/c1ccc(Cl)cc1)N/N=C/c1cccc(Cl)c1` [NCL083], the “MIC (μg/ml) at 24 hours, VRE 2” value was above 128 µg/mL.
As to `Cl.N#Cc1ccccc1C=NNC(=N)NN=Cc1ccc(Cl)cc1` [NCL085], the “MIC (μg/ml) at 24 hours, VRE 2” value was above 128 µg/mL.
With `Cl.N#Cc1cccc(C=NNC(=N)NN=Cc2ccc(Cl)cc2)c1` [NCL086], the “MIC (μg/ml) at 24 hours, VRE 2” value is 128 µg/mL.
On the same count and under the same terms, the value for `Cl.N#Cc1ccc(/C=N/NC(=N)N/N=C/c2ccc(Cl)cc2)cc1` [NCL087] was above 128 µg/mL; that for `Cl.N=C(NC(=O)c1ccccc1)N(N=Cc1ccccc1Cl)C(=O)c1ccccc1` [NCL090] was above 128 µg/mL.
As to `FC(F)(F)c1ccc(-c2nnc(Nc3ccc(Cl)cc3)[nH]2)cc1` [NCL091], the “MIC (μg/ml) at 24 hours, VRE 2” value was above 128 µg/mL.
Regarding `Clc1ccc(CNc2nnc(-c3ccc(Cl)cc3)[nH]2)cc1` [NCL092], the “MIC (μg/ml) at 24 hours, VRE 2” value is above 128 µg/mL.
Regarding `Cl.N=C(N/N=C/c1ccc2ccccc2c1)N/N=C/c1ccc2ccccc2c1` [NCL093], the “MIC (μg/ml) at 24 hours, VRE 2” value is above 128 µg/mL.
On the same count and under the same terms, the value for `Cl.N=C(NN=CC1CCCCC1)NN=CC1CCCCC1` [NCL094] was 128 µg/mL.
